Data as given in patent US20260124222A1, “ISOTHIAZOLYLCARBOXAMIDE COMPOUNDS AND THEIR USE IN THERAPY” (HOTSPOT THERAPEUTICS, INC., priority 2022, published 2026).

Target: T1, Avi-tagged FL MALT-1 (Homo sapiens, UniProt Q9UDY8)
T1 construct: Avi-tagged FL MALT-1 (Pharmaron, stored at −70° C.); Avi-tag; purchased Pharmaron
T1 sequence (Q9UDY8 1-824): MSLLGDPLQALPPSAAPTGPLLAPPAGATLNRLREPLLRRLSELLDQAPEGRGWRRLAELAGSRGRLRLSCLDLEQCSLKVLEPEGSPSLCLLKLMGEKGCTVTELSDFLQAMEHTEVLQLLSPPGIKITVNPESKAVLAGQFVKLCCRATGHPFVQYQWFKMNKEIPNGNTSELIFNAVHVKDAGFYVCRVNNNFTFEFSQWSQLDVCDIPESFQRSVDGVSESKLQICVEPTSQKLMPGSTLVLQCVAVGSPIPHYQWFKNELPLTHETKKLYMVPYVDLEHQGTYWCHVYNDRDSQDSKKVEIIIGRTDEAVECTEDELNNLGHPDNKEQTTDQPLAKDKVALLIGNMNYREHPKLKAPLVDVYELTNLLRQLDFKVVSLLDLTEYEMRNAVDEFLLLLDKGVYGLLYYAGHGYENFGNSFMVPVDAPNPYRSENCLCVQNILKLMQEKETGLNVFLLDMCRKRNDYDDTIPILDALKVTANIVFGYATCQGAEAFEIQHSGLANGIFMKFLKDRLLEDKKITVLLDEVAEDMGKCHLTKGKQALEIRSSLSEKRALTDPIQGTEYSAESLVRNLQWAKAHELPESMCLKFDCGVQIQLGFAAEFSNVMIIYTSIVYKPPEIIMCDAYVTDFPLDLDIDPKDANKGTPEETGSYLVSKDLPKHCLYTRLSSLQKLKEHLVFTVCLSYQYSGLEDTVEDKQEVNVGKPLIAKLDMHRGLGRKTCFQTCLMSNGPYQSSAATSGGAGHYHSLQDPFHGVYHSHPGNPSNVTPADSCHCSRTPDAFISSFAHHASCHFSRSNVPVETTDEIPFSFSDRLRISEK
Assay: MALT-1 Fluorogenic Peptide Cleavage Assay (MALT1 inhibition assay)
Format: biochemical
Conditions: Ac-LRSR-AMC peptide substrate; 30 min pre-incubation, 90 min reaction at room temperature; fluorescence
Procedure, shortened: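 Full-length Avi-tagged enzyme preincubated 30 min at room temperature with compound (2% DMSO final) in HEPES pH 6.89 buffer with sodium citrate, TCEP, EDTA and CHAPS. Ac-LRSR-AMC substrate added at Km or 10×Km (working stocks 50 or […] μM); fluorescence (ex 342/em 441 nm) after 90 min; IC50 from sigmoidal fit.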

SMILES	IC50
O=C(Nc1ccnc(C(F)(F)F)c1)c1snc(-c2cccc3c(=O)[nH]ccc23)c1C1CC1 [I-189, 4-cyclopropyl-3-(1-oxo-1,2-dihydroisoquinolin-5-yl)-N-(2-(trifluoromethyl)pyridin-4-yl)isothiazole-5-carboxamide]	≤ 400 nM
O=C(Nc1ccc(C(=O)N2CC(O)C2)c(Cl)c1)c1snc(-c2cccc3nccn23)c1C1CC1 [I-190, N-(3-chloro-4-(3-hydroxyazetidine-1-carbonyl)phenyl)-4-cyclopropyl-3-(imidazo[1,2-a]pyridin-5-yl)isothiazole-5-carboxamide]	≤ 400 nM
Cc1cc(-c2nsc(C(=O)Nc3ccnc(C(F)(F)F)c3)c2C2CC2)ccn1 [I-191, 4-cyclopropyl-3-(2-methylpyridin-4-yl)-N-(2-(trifluoromethyl)pyridin-4-yl)isothiazole-5-carboxamide]	≤ 400 nM
O=C(Nc1ccnc(C(F)(F)F)c1)c1snc(-c2cnccc2F)c1C1CC1 [I-192, 4-cyclopropyl-3-(4-fluoropyridin-3-yl)-N-(2-(trifluoromethyl)pyridin-4-yl)isothiazole-5-carboxamide]	≤ 400 nM
CNC(=O)c1cccc(-c2nsc(C(=O)Nc3ccnc(C(F)(F)F)c3)c2C2CC2)c1 [I-193, 4-cyclopropyl-3-(3-(methylcarbamoyl)phenyl)-N-(2-(trifluoromethyl)pyridin-4-yl)isothiazole-5-carboxamide]	400 to 1000 nM
O=C(Nc1ccnc(C(F)(F)F)c1)c1snc(-c2ccc3cncn3c2)c1C1CC1 [I-194, 4-cyclopropyl-3-(imidazo[1,5-a]pyridin-6-yl)-N-(2-(trifluoromethyl)pyridin-4-yl)isothiazole-5-carboxamide]	≤ 400 nM
O=C(Nc1ccnc(C(F)(F)F)c1)c1snc(-c2cccc(F)c2)c1C1CC1 [I-195, 4-cyclopropyl-3-(3-fluorophenyl)-N-[2-(trifluoromethyl)pyridin-4-yl]-1,2-thiazole-5-carboxamide]	≤ 400 nM
Cc1cc(NC(=O)c2snc(-c3ccccc3)c2C2CC2)ccn1 [I-196, 4-cyclopropyl-N-(2-methylpyridin-4-yl)-3-phenylisothiazole-5-carboxamide]	≤ 400 nM
Cc1noc(C)c1-c1nsc(C(=O)Nc2ccnc(C(F)(F)F)c2)c1C1CC1 [I-197, 4-cyclopropyl-3-(3,5-dimethylisoxazol-4-yl)-N-(2-(trifluoromethyl)pyridin-4-yl)isothiazole-5-carboxamide]	≤ 400 nM
O=C(Nc1ccc(C(=O)N2CC(O)C2)c(Cl)c1)c1snc(-c2cccc3c(=O)[nH]ccc23)c1C1CC1 [I-198, N-(3-chloro-4-(3-hydroxyazetidine-1-carbonyl)phenyl)-4-cyclopropyl-3-(1-oxo-1,2-dihydroisoquinolin-5-yl)isothiazole-5-carboxamide]	≤ 400 nM
Cc1cc(NC(=O)c2snc(-c3cccc4ncccc34)c2C2CC2)ccn1 [I-199, 4-cyclopropyl-N-(2-methylpyridin-4-yl)-3-(quinolin-5-yl)isothiazole-5-carboxamide]	≤ 400 nM
Cc1cc(NC(=O)c2snc(-c3cccc4c(=O)[nH]ccc34)c2C2CC2)ccn1 [I-200, 4-cyclopropyl-N-(2-methylpyridin-4-yl)-3-(1-oxo-1,2-dihydroisoquinolin-5-yl)isothiazole-5-carboxamide]	≤ 400 nM
Cc1cc(NC(=O)c2snc([C@@H]3CCOC3)c2C2CC2)ccn1 [I-201, (S)-4-cyclopropyl-N-(2-methylpyridin-4-yl)-3-(tetrahydrofuran-3-yl)isothiazole-5-carboxamide]	> 2500 nM
Cc1cc(NC(=O)c2snc([C@H]3CCOC3)c2C2CC2)ccn1 [I-202, 4-cyclopropyl-N-(2-methylpyridin-4-yl)-3-[(3R)-oxolan-3-yl]-1,2-thiazole-5-carboxamide]	> 2500 nM
Cn1cc2c(-c3nsc(C(=O)Nc4ccc(C(=O)N5CC(O)C5)c(Cl)c4)c3C3CC3)cccc2n1 [I-203, N-(3-chloro-4-(3-hydroxyazetidine-1-carbonyl)phenyl)-4-cyclopropyl-3-(2-methyl-2H-indazol-4-yl)isothiazole-5-carboxamide]	400 to 1000 nM
O=C(Nc1ccnc(C(F)(F)F)c1)c1snc([C@@H]2CCOC2)c1C1CC1 [I-204, (S)-4-cyclopropyl-3-(tetrahydrofuran-3-yl)-N-(2-(trifluoromethyl)pyridin-4-yl)isothiazole-5-carboxamide]	> 2500 nM
O=C(Nc1ccnc(C(F)(F)F)c1)c1snc([C@H]2CCOC2)c1C1CC1 [I-205, (R)-4-cyclopropyl-3-(tetrahydrofuran-3-yl)-N-(2-(trifluoromethyl)pyridin-4-yl)isothiazole-5-carboxamide]	1000 to 2500 nM
Cn1cc2c(-c3nsc(C(=O)Nc4cnc(-n5nccn5)c(C#N)c4)c3C3CC3)cccc2n1 [I-206, N-(5-cyano-6-(2H-1,2,3-triazol-2-yl)pyridin-3-yl)-4-cyclopropyl-3-(2-methyl-2H-indazol-4-yl)isothiazole-5-carboxamide]	≤ 400 nM
Cn1nc2cccc(-c3nsc(C(=O)Nc4ccnc(C(F)(F)F)c4)c3C3CC3)c2n1 [I-207, 4-cyclopropyl-3-(2-methyl-2H-benzo[d][1,2,3]triazol-4-yl)-N-(2-(trifluoromethyl)pyridin-4-yl)isothiazole-5-carboxamide]	≤ 400 nM
Cn1cc2cccc(-c3nsc(C(=O)Nc4ccnc(C(F)(F)F)c4)c3C3CC3)c2n1 [I-208, 4-cyclopropyl-3-(2-methyl-2H-indazol-7-yl)-N-(2-(trifluoromethyl)pyridin-4-yl)isothiazole-5-carboxamide]	400 to 1000 nM
Cn1cc2c(-c3nsc(C(=O)Nc4cc(C(F)(F)F)ccn4)c3C3CC3)cccc2n1 [I-209, 4-cyclopropyl-3-(2-methylindazol-4-yl)-N-[4-(trifluoromethyl)pyridine-2-yl]-1,2-thiazole-5-carboxamide]	> 2500 nM
O=C(Nc1ccnc(C(F)(F)F)c1)c1snc(-c2cccn3nccc23)c1C1CC1 [I-210, 4-cyclopropyl-3-(pyrazolo[1,5-a]pyridine-4-yl)-N-(2-(trifluoromethyl)pyridine-4-yl)isothiazole-5-carboxamide]	≤ 400 nM
Cc1cc(NC(=O)c2snc(-c3cccn4nccc34)c2C2CC2)ccn1 [I-211, 4-cyclopropyl-N-(2-methylpyridin-4-yl)-3-(pyrazolo[1,5-a]pyridine-4-yl)isothiazole-5-carboxamide]	≤ 400 nM
O=C(Nc1cnc(C(=O)N2CC(O)C2)c(Cl)c1)c1snc(-c2cccn3nccc23)c1C1CC1 [I-212, N-(5-chloro-6-(3-hydroxyazetidine-1-carbonyl)pyridin-3-yl)-4-cyclopropyl-3-(pyrazolo[1,5-a]pyridin-4-yl)isothiazole-5-carboxamide]	≤ 400 nM
